Laboratory results from patent publication US11725012B2, “Imidazo[1,5-a]pyrazine derivatives as PI3K δ inhibitors” (priority 2016, dated 2023).

Legend:
Format in all cases: biochemical
PI3K (p110γ) = PI3K (p110γ) (Homo sapiens, UniProt P48736); test: PI3Kγ ADP-Glo kinase assay; conditions: read-out: PI3Kγ Enzyme activity IC50
PI3K (p110β/p85α) = PI3K (p110β/p85α) (Homo sapiens, UniProt P42338); test: PI3Kβ ADP-Glo kinase assay; conditions: read-out: PI3Kβ Enzyme activity IC50
[1] = biological target: recombinant PI3K (p110δ/p85α) (Homo sapiens, UniProt O00329); test: PI3Kδ ADP-Glo kinase assay; conditions: read-out: PI3Kδ Enzyme activity IC50
Summary of the method: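 ADP-Glo luminescence with recombinant p110δ/p85α and lipid kinase substrate. Compound serial dilutions preincubated 0.5 hr, ATP added, reaction 1 hr at room temperature, then ATP depletion and detection steps. IC50 from a four-parameter logistic fit of residual activity.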

[2] = biological target: recombinant PI3K (p110α/p85α) (Homo sapiens, UniProt P42336); test: PI3Kα ADP-Glo kinase assay; conditions: read-out: PI3Kα Enzyme activity IC50
Sequence of recombinant PI3K (p110α/p85α) (P42336 whole entry): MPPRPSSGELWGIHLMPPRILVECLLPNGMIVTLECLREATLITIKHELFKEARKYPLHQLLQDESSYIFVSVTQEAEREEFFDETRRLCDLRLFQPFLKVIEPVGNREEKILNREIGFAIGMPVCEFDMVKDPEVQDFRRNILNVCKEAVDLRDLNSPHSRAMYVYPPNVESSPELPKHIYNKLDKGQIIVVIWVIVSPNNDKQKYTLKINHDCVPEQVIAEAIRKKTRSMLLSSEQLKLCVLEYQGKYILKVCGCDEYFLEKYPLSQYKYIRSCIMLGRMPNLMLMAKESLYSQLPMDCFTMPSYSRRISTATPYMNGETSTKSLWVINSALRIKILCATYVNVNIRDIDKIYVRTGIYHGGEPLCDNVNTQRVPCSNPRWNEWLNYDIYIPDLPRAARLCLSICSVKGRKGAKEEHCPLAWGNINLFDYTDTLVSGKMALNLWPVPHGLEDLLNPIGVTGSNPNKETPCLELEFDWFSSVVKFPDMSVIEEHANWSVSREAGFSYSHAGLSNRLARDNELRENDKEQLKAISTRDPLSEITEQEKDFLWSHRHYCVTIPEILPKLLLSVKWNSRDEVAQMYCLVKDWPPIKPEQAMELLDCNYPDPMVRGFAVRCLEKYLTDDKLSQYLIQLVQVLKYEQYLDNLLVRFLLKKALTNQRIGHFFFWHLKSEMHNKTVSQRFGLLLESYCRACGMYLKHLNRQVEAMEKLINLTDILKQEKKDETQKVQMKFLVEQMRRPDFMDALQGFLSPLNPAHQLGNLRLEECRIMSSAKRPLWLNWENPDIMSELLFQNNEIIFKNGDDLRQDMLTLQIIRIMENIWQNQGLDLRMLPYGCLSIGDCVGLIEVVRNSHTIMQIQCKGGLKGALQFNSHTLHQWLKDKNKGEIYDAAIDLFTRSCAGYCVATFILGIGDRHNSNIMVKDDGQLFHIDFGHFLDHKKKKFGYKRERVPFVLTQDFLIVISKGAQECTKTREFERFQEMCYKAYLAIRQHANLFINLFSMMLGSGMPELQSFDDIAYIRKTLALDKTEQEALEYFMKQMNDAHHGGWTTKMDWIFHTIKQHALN
Sequence of recombinant PI3K (p110α/p85α) (P27986 whole entry partner): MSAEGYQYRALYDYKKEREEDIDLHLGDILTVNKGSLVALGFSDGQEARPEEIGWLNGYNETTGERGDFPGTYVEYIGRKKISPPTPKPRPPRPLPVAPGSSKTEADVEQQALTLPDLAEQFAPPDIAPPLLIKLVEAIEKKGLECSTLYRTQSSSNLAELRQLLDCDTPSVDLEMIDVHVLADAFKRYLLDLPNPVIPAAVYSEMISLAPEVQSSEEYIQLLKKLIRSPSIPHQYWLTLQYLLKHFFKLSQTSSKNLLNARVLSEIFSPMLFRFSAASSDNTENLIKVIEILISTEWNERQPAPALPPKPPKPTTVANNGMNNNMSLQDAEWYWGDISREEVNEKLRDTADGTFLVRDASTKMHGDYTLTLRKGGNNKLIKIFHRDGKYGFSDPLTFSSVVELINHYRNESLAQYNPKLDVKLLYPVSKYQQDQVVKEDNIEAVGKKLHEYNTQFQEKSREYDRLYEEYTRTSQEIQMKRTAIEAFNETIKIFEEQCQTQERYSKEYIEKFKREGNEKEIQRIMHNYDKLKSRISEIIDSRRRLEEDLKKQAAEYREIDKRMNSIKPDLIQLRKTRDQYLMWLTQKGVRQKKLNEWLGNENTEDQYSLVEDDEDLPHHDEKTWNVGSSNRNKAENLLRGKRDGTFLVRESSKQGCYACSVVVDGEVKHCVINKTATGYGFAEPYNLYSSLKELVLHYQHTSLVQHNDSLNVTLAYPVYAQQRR

Sequence of recombinant PI3K (p110δ/p85α) (O00329 whole entry): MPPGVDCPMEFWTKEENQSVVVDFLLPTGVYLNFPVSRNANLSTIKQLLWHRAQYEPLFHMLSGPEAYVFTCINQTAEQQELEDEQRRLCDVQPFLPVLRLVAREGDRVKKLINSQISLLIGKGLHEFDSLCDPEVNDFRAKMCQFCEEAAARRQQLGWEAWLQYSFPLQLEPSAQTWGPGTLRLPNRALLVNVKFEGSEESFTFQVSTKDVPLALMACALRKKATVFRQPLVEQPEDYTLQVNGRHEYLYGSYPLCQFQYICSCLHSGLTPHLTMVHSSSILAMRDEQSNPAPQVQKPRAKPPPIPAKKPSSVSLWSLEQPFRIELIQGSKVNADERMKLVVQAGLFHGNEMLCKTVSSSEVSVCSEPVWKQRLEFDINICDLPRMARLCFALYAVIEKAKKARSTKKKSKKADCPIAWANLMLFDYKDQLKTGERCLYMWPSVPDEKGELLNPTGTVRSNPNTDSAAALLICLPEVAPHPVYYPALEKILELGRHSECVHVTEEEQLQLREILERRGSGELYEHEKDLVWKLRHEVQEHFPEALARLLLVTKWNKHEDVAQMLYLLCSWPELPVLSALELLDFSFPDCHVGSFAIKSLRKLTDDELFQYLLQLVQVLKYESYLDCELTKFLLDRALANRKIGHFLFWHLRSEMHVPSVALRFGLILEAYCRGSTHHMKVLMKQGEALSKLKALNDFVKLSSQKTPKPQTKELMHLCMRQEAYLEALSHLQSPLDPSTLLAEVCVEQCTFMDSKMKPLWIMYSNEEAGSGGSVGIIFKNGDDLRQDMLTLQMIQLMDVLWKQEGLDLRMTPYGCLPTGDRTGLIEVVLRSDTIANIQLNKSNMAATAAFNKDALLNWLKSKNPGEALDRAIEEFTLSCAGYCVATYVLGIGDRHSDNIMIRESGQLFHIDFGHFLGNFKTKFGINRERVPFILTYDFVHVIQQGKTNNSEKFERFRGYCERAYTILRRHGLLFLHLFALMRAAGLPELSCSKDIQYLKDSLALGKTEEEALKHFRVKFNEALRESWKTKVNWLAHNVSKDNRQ
Sequence of recombinant PI3K (p110δ/p85α) (P27986 whole entry partner): as the sequence (P27986 whole entry partner) above
Sequence of PI3K (p110γ) (P48736 whole entry): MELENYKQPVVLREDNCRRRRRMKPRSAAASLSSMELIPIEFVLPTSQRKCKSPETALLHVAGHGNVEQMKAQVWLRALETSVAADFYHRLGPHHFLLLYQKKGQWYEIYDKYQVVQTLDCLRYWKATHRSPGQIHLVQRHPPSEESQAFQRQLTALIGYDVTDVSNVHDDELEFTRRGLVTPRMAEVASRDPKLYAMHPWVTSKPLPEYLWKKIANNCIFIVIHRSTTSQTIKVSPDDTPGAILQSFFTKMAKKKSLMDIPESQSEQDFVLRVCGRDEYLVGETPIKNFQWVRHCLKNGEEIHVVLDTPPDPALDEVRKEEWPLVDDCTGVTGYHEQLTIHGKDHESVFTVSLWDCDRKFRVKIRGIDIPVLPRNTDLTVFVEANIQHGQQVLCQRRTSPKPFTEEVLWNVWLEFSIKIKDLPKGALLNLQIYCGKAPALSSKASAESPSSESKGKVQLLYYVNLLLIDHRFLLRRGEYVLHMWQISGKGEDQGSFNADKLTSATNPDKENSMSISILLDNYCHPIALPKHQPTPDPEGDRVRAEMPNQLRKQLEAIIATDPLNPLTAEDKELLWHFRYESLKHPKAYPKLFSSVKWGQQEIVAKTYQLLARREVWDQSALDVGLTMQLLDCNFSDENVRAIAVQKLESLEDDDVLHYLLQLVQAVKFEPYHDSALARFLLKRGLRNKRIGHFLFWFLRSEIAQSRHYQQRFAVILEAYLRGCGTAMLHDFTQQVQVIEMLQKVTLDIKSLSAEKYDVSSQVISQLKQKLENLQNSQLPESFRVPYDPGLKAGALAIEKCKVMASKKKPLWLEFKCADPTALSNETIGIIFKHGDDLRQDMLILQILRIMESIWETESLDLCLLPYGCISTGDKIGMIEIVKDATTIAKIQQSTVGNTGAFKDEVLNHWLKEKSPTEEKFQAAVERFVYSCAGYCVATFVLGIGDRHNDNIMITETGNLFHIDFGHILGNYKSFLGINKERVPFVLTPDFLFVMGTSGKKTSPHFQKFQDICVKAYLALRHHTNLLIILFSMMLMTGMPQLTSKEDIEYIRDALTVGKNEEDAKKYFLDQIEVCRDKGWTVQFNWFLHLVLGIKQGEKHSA
Sequence of PI3K (p110β/p85α) (P42338 whole entry): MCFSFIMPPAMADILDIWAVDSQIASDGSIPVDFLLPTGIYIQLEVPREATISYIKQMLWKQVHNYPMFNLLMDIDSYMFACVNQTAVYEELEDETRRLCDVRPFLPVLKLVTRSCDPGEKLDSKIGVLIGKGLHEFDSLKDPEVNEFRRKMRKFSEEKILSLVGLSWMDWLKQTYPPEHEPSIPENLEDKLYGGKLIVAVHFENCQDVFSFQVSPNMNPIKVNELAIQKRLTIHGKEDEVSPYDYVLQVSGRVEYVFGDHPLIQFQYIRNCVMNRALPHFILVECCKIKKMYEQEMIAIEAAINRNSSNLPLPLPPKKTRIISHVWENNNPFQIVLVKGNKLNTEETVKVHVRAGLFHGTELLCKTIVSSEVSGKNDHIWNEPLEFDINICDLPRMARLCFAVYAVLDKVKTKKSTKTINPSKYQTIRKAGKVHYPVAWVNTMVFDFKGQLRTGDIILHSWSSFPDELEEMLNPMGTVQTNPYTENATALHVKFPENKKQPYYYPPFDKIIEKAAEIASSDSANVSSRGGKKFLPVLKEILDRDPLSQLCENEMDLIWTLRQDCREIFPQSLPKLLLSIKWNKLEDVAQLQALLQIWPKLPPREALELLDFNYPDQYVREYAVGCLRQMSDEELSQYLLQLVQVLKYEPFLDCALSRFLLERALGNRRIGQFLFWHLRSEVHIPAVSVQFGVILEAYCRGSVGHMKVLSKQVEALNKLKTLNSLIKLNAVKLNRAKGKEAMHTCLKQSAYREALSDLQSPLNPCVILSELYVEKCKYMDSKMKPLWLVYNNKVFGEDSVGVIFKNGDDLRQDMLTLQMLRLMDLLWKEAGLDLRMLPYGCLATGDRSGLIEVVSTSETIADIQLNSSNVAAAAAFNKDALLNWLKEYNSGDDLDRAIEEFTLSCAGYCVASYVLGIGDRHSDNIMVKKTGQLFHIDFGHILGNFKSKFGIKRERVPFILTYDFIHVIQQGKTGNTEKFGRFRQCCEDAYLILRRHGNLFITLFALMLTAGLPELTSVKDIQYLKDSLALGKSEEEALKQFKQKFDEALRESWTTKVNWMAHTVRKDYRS
Sequence of PI3K (p110β/p85α) (P27986 whole entry partner): as the sequence (P27986 whole entry partner) above

SMILES: CCOc1c(C(C)c2nc(Cl)c3c(N)nccn23)cc(Cl)c(F)c1-c1ccc(C(F)(F)F)nc1 (stereo not shown) [Compound 41, 1-chloro-3-(1-(5-chloro-2-ethoxy-4-fluoro-3-(6-(trifluoromethyl)pyridin-3-yl)phenyl)ethyl)imidazo[1,5-a]pyrazin-8-amine]
- IC50 (PI3K (p110γ)): 2.1 µM
- IC50 (PI3K (p110β/p85α)): 3.1 µM
- IC50 [1]: 0.0032 µM
- IC50 [2]: 2.7 µM

SMILES: CCOc1c([C@H](C)c2nc(Cl)c3c(N)nccn23)cc(Cl)c(F)c1-c1ccc(C(F)(F)F)nc1 [Compound 41A]
- IC50 (PI3K (p110γ)): 0.73 µM
- IC50 (PI3K (p110β/p85α)): 1.2 µM
- IC50 [1]: 0.0021 µM
- IC50 [2]: 2.2 µM

SMILES: CCCOc1c(C(C)c2nc(Cl)c3c(N)nccn23)cc(Cl)c(F)c1-c1ccc(C(F)(F)F)nc1 (stereo not shown) [Compound 42, 1-chloro-3-(1-(5-chloro-4-fluoro-2-propoxy-3-(6-(trifluoromethyl)pyridin-3-yl)phenyl)ethyl)imidazo[1,5-a]pyrazin-8-amine]
- IC50 (PI3K (p110γ)): 1.6 µM
- IC50 (PI3K (p110β/p85α)): > 50 µM
- IC50 [1]: 0.0074 µM
- IC50 [2]: > 50 µM

SMILES: CCCOc1c([C@H](C)c2nc(Cl)c3c(N)nccn23)cc(Cl)c(F)c1-c1ccc(C(F)(F)F)nc1 [Compound 42A]
- IC50 (PI3K (p110γ)): 0.81 µM
- IC50 (PI3K (p110β/p85α)): 2.2 µM
- IC50 [1]: 0.0041 µM
- IC50 [2]: 26 µM

SMILES: CCOc1c(C(C)c2nc(Cl)c3c(N)nccn23)cc(Cl)c(F)c1-c1ccc(C(F)(F)F)nc1OC (stereo not shown) [Compound 43, 1-chloro-3-(1-(5-chloro-2-ethoxy-4-fluoro-3-(2-methoxy-6-(trifluoromethyl)pyridin-3-yl)phenyl)ethyl)imidazo[1,5-al]pyrazin-8-amine]
- IC50 (PI3K (p110γ)): > 50 µM
- IC50 (PI3K (p110β/p85α)): > 50 µM
- IC50 [1]: 0.059 µM
- IC50 [2]: > 50 µM

SMILES: CCOc1c([C@H](C)c2nc(Cl)c3c(N)nccn23)cc(Cl)c(F)c1-c1ccc(C(F)(F)F)nc1OC [Compound 43A]
- IC50 (PI3K (p110γ)): > 50 µM
- IC50 (PI3K (p110β/p85α)): > 50 µM
- IC50 [1]: 0.028 µM
- IC50 [2]: > 50 µM

SMILES: CCOc1c(C(C)c2nc(Cl)c3c(N)nccn23)cc(Cl)c(C)c1-c1ccc(OC)cc1 (stereo not shown) [Compound 45, 1-chloro-3-(1-(5-chloro-2-ethoxy-4′-methoxy-6-methyl-[1,1′-biphenyl]-3-yl)ethyl)imidazo[1,5-a]pyrazin-8-amine]
- IC50 (PI3K (p110γ)): 1.2 µM
- IC50 (PI3K (p110β/p85α)): 0.93 µM
- IC50 [1]: 0.017 µM
- IC50 [2]: 1.1 µM

SMILES: CCOc1c(C(C)c2nc(Cl)c3c(N)nccn23)cc(Cl)c(C)c1C1CNC(=O)C1 (stereo not shown) [Compound 46, 4-(3-(1-(8-amino-1-chloroimidazo[1,5-a]pyrazin-3-yl)ethyl)-5-chloro-2-ethoxy-6-methylphenyl)pyrrolidin-2-one]
- IC50 (PI3K (p110γ)): 0.92 µM
- IC50 (PI3K (p110β/p85α)): 0.47 µM
- IC50 [1]: 0.0007 µM
- IC50 [2]: 5.6 µM

SMILES: CC(C)Oc1c(C(C)c2nc(Cl)c3c(N)nccn23)cc(Cl)c(F)c1C1CNC(=O)C1 (stereo not shown) [Compound 48, 4-(3-(1-(8-amino-1-chloroimidazo[1,5-a]pyrazin-3-yl)ethyl)-5-chloro-6-fluoro-2-isopropoxyphenyl)pyrrolidin-2-one]
- IC50 (PI3K (p110γ)): 0.53 µM
- IC50 (PI3K (p110β/p85α)): 0.58 µM
- IC50 [1]: 0.00042 µM
- IC50 [2]: 0.54 µM

SMILES: CCOc1cc(C)c(Cl)cc1C(C)c1nc(Br)c2c(N)nccn12 (stereo not shown) [Compound 50, 1-bromo-3-(1-(5-chloro-2-ethoxy-4-methylphenyl)ethyl)imidazo[1,5-a]pyrazin-8-amine]
- IC50 (PI3K (p110γ)): 2.6 µM
- IC50 (PI3K (p110β/p85α)): 0.67 µM
- IC50 [1]: 0.017 µM
- IC50 [2]: 36 µM

SMILES: CCOc1c(C(C)c2nc(Cl)c3c(N)nccn23)cc(Cl)c(C)c1N1CCOCC1 (stereo not shown) [Compound 51, 1-chloro-3-(1-(5-chloro-2-ethoxy-4-methyl-3-morpholinophenyl)ethyl)imidazo[1,5-a]pyrazin-8-amine]
- IC50 (PI3K (p110γ)): 1.7 µM
- IC50 (PI3K (p110β/p85α)): 2.7 µM
- IC50 [1]: 0.0016 µM
- IC50 [2]: 2.9 µM

SMILES: CC(c1cc(Cl)c(C#N)c(=O)n1-c1ccccc1)n1cc(Br)c2c(N)ncnc21 (stereo not shown) [Compound 54, 6-(1-(4-amino-5-bromo-7H-pyrrolo[2,3-d]pyrimidin-7-yl)ethyl)-4-chloro-2-oxo-1-phenyl-1,2-dihydropyridine-3-carbonitrile]
- IC50 (PI3K (p110γ)): 4.2 µM
- IC50 (PI3K (p110β/p85α)): 1.7 µM
- IC50 [1]: 0.015 µM
- IC50 [2]: 29 µM

SMILES: COc1cc(C(C)n2cc(Br)c3c(N)ncnc32)n(-c2ccccc2)c(=O)c1C#N (stereo not shown) [Compound 57, 6-(1-(4-amino-5-bromo-7H-pyrrolo[2,3-d]pyrimidin-7-yl)ethyl)-4-methoxy-2-oxo-1-phenyl-1,2-dihydropyridine-3-carbonitrile]
- IC50 (PI3K (p110γ)): 1.9 µM
- IC50 (PI3K (p110β/p85α)): 1.24 µM
- IC50 [1]: 0.02 µM
- IC50 [2]: 83 µM

SMILES: Cc1nc([C@@H](C)c2cc(Cl)c(F)c(-c3ccc(C(F)(F)F)nc3)c2OC(C)C)n2ccnc(N)c12 [Compound 58, (S)-3-(1-(5-chloro-4-fluoro-2-isopropoxy-3-(6-(trifluoromethyl)pyridin-3-yl)phenyl)ethyl)-1-methylimidazo[1,5-a]pyrazin-8-amine]
- IC50 (PI3K (p110γ)): 13 µM
- IC50 (PI3K (p110β/p85α)): 17 µM
- IC50 [1]: 0.0056 µM
- IC50 [2]: 14 µM

SMILES: Cc1nc(C(C)c2cc(Cl)c(F)c(-c3ccc(C#N)nc3)c2OC(C)C)n2ccnc(N)c12 (stereo not shown) [Compound 59, 5-(3-(1-(8-amino-1-methylimidazo[1,5-a]pyrazin-3-yl)ethyl)-5-chloro-6-fluoro-2-isopropoxyphenyl)picolinonitrile]
- IC50 (PI3K (p110γ)): 6.3 µM
- IC50 (PI3K (p110β/p85α)): 3.5 µM
- IC50 [1]: 0.0025 µM
- IC50 [2]: 10 µM

SMILES: Cc1nc([C@@H](C)c2cc(Cl)c(F)c(-c3ccc(C(N)=NO)nc3)c2OC(C)C)n2ccnc(N)c12 [Compound 60]
- IC50 (PI3K (p110γ)): 2.8 µM
- IC50 (PI3K (p110β/p85α)): 4.2 µM
- IC50 [1]: 0.0016 µM
- IC50 [2]: 4.3 µM

SMILES: Cc1nc([C@@H](C)c2cc(Cl)c(F)c(-c3ccc(C(=O)N4CCC(O)CC4)nc3)c2OC(C)C)n2ccnc(N)c12 [Compound 61, (S)-(5-(3-(1-(8-amino-1-methylimidazo[1,5-a]pyrazin-3-yl)ethyl)-5-chloro-6-fluoro-2-isopropoxyphenyl)pyridin-2-yl)(4-hydroxypiperidin-1-yl)methanone]
- IC50 (PI3K (p110γ)): 3.8 µM
- IC50 (PI3K (p110β/p85α)): 6.1 µM
- IC50 [1]: 0.00058 µM
- IC50 [2]: 2.9 µM

SMILES: Cc1nc([C@@H](C)c2cc(Cl)c(F)c(-c3ccc(C(=O)NCCO)nc3)c2OC(C)C)n2ccnc(N)c12 [Compound 62, (S)-5-(3-(1-(8-amino-1-methylimidazo[1,5-a]pyrazin-3-yl)ethyl)-5-chloro-6-fluoro-2-isopropoxyphenyl)-N-(2-hydroxyethyl)picolinamide]
- IC50 (PI3K (p110γ)): 2.6 µM
- IC50 (PI3K (p110β/p85α)): 3.6 µM
- IC50 [1]: 0.00082 µM
- IC50 [2]: 5.2 µM

SMILES: Cc1nc([C@@H](C)c2cc(Cl)c(F)c(-c3ccc(C(=O)N4CC(O)C4)nc3)c2OC(C)C)n2ccnc(N)c12 [Compound 63, (S)-(5-(3-(1-(8-amino-1-methylimidazo[1,5-a]pyrazin-3-yl)ethyl)-5-chloro-6-fluoro-2-isopropoxyphenyl)pyridin-2-yl)(3-hydroxyazetidine-1-yl)methanone]
- IC50 (PI3K (p110γ)): 2.4 µM
- IC50 (PI3K (p110β/p85α)): 2.3 µM
- IC50 [1]: 0.00056 µM
- IC50 [2]: 2.6 µM

SMILES: Cc1nc([C@@H](C)c2cc(Cl)c(F)c(-c3ccc(C(=O)N4CC[C@@H](O)C4)nc3)c2OC(C)C)n2ccnc(N)c12 [Compound 64, (5-(3-((S)-1-(8-amino-1-methylimidazo[1,5-a]pyrazin-3-yl)ethyl)-5-chloro-6-fluoro-2-isopropoxyphenyl)pyridin-2-yl)((R)-3-hydroxypyrrolidin-1-yl)methanone]
- IC50 (PI3K (p110γ)): 2.1 µM
- IC50 (PI3K (p110β/p85α)): 1.6 µM
- IC50 [1]: 0.00037 µM
- IC50 [2]: 1.4 µM

SMILES: Cc1nc([C@@H](C)c2cc(Cl)c(F)c(-c3ccc(C(=O)N4CC(C(=O)O)C4)nc3)c2OC(C)C)n2ccnc(N)c12 [Compound 65, (S)-1-(5-(3-(1-(8-amino-1-methylimidazo[1,5-a]pyrazin-3-yl)ethyl)-5-chloro-6-fluoro-2-isopropoxyphenyl)picolinoyl)azetidine-3-carboxylic Acid]
- IC50 (PI3K (p110γ)): 1.6 µM
- IC50 (PI3K (p110β/p85α)): 1.2 µM
- IC50 [1]: 0.00071 µM
- IC50 [2]: 5.4 µM

SMILES: Cc1nc([C@@H](C)c2cc(Cl)c(F)c(-c3ccc(C(=O)NC4(CO)CC4)nc3)c2OC(C)C)n2ccnc(N)c12 [Compound 66, (S)-5-(3-(1-(8-amino-1-methylimidazo[1,5-a]pyrazin-3-yl)ethyl)-5-chloro-6-fluoro-2-isopropoxyphenyl)-N-(1-(hydroxymethyl)cyclopropyl)picolinamide]
- IC50 (PI3K (p110γ)): 2.6 µM
- IC50 (PI3K (p110β/p85α)): 3.4 µM
- IC50 [1]: 0.00072 µM
- IC50 [2]: 4.1 µM

SMILES: Cc1nc([C@@H](C)c2cc(Cl)c(F)c(-c3ccc(C(=O)N4CCC[C@H]4C(=O)O)nc3)c2OC(C)C)n2ccnc(N)c12 [Compound 67, (5-(3-((S)-1-(8-amino-1-methylimidazo[1,5-a]pyrazin-3-yl)ethyl)-5-chloro-6-fluoro-2-isopropoxyphenyl)picolinoyl)-L-proline]
- IC50 (PI3K (p110γ)): 1.2 µM
- IC50 (PI3K (p110β/p85α)): 0.46 µM
- IC50 [1]: 0.00047 µM
- IC50 [2]: 5.2 µM

SMILES: Cc1nc([C@@H](C)c2cc(Cl)c(F)c(-c3ccc(C(=O)NC4(C(=O)O)CC4)nc3)c2OC(C)C)n2ccnc(N)c12 [Compound 68, (S)-1-(5-(3-(1-(8-amino-1-methylimidazo[1,5-a]pyrazin-3-yl)ethyl)-5-chloro-6-fluoro-2-isopropoxyphenyl)picolinamido)cyclopropane-1-carboxylic Acid]
- IC50 (PI3K (p110γ)): 0.96 µM
- IC50 (PI3K (p110β/p85α)): 0.4 µM
- IC50 [1]: 0.00033 µM
- IC50 [2]: 3.4 µM

SMILES: Cc1nc([C@@H](C)c2cc(Cl)c(F)c(-c3ccc(C(=O)N4CCC[C@@H]4C(=O)O)nc3)c2OC(C)C)n2ccnc(N)c12 [Compound 69, (5-(3-((S)-1-(8-amino-1-methylimidazo[1,5-a]pyrazin-3-yl)ethyl)-5-chloro-6-fluoro-2-isopropoxyphenyl)picolinoyl)-D-proline]
- IC50 (PI3K (p110γ)): 0.62 µM
- IC50 (PI3K (p110β/p85α)): 0.61 µM
- IC50 [1]: 0.00071 µM
- IC50 [2]: 7.1 µM
